The subject of one series is Female house mosquitoes. Kind of series: Petri dish insecticidal efficacy test (KT100 and mortality after 24 hours). The series is classed as in vivo. The text has this: The fractionated component E2-4-2 which is a mixture of compound A and compound B was subjected to the insecticidal efficacy test based on the test conditions shown in Table 3, wherein the concentration of the fractionated component E2-4-2, natural pyrethrin, and dl-d-T80-allethrin was further diluted for the test.

Another series has as its system adults of house flies. As to conditions: cited from earlier work.
Series [1] deals with adults of Blattella germanica. As to conditions: on the basis of the LD50 value by a microdropping method; cited from earlier work.

Entries after “also recorded” stand apart in the source; their conditions may differ.

`C=CCC1=C(C)C(OC(=O)C2C(C=C(C)C)C2(C)C)CC1=O` (racemic) [dl-d-T80-allethrin]: the KT100 value with Female house mosquitoes (Table 4, 0.001 mg/6.15 cm^2) is 50 min; with Female house mosquitoes (Table 4, 0.01 mg/6.15 cm^2), under 5 min; in the series with Female house mosquitoes (Table 4, 0.1 mg/6.15 cm^2, time to 100% knockdown) it was under 5 min; in the series on Female house mosquitoes (Table 5, 10^−1 mg/6.15 cm^2) it was under 5 min; in the series on Female house mosquitoes (Table 5, 10^−2 mg/6.15 cm^2), under 5 min; with Female house mosquitoes (Table 5, 10^−3 mg/6.15 cm^2) it was 50 min. In addition, the KT100 value in the series on Female house mosquitoes (Table 5, 10^−4 mg/6.15 cm^2) is over 120 min; with Female house mosquitoes (Table 7, 10^−5 mg/6.15 cm^2) it was “cannot achieved; also recorded: Survive”. The “The mortality after 24 hours” value came out at 83% in the series on Female house mosquitoes (Table 4, 0.001 mg/6.15 cm^2); 100% with Female house mosquitoes (Table 4, 0.01 mg/6.15 cm^2); 100% with Female house mosquitoes (Table 4, 0.1 mg/6.15 cm^2); 100% in the series with Female house mosquitoes (Table 5, 10^−1 mg/6.15 cm^2); 100% in the series with Female house mosquitoes (Table 5, 10^−2 mg/6.15 cm^2); 83% in the series with Female house mosquitoes (Table 5, 10^−3 mg/6.15 cm^2). Moreover, the “The mortality after 24 hours” value was determined as 17% with Female house mosquitoes (Table 5, 10^−4 mg/6.15 cm^2) and 0% in the series on Female house mosquitoes (Table 7, 10^−5 mg/6.15 cm^2). Moreover, the “dose required for killing the adults of house flies relative to the dose required for killing the adults of house mosquitoes” value in the series with adults of house flies (on the basis of the LD50 value by a microdropping method) is recorded as “about 17 times”. Besides, the “dose required for killing the adult house flies relative to the dose required for killing northern house mosquitoes” value in the series with adults of house flies (rounded statement) is listed as “about 20 times”. Further, the “dose required for killing the adults of Blattella germanica relative to the dose required for killing the adults of house mosquitoes” value in series [1] was “about 103 times”.

These data come from patent US8377993B2, “Insecticidal compound” (Dainihon Jochugiku Co., Ltd., priority 2010, dated 2013).
